Results: US20140080886A1, “Methods for Treating HCV” (priority 2012, published 2014)
Where two headings read alike, the source gives them in different places.

Assays:
Assay type in all cases: cell-based
[1] = system: HCV genotype 1a-H77 replicon; experiment: HCV stable subgenomic replicon cell culture assay (luciferase reporter), genotype 1a-H77; conditions: Hepatitis C virus
[2] = system: HCV genotype 1b-Con1 replicon; experiment: HCV stable subgenomic replicon cell culture assay (luciferase reporter), genotype 1b-Con1; conditions: Hepatitis C virus
[3] = system: HCV replicon containing NS5A from genotype 2a; experiment: Stable 1b-Con1 replicon cell line containing a portion of NS5A from genotype 2a (luciferase); conditions: Hepatitis C virus
Method: (§1) This replicon construct contains a NotI restriction site upstream of NS5A, and a BlpI restriction site just after NS5A amino acid 214. Viral RNA from infected subjects was isolated according to Middleton et al., J VIROL METHODS 145:137-145 (2007) and Tripathi et al., ANTIVIRAL RES 73:40-49 (2007). RT-PCR was conducted on the RNA to generate a DNA fragment encoding NS5A amino acids 1-214. The PCR fragment incorporated NotI and BlpI compatible ends, and this fragment was ligated into a plasmid containing the 1b-Con1 replicon. Stable cell lines were generated by introducing these constructs into Huh-7 cells.
(§2) Briefly, replicon-containing cells were seeded into 96-well plates at a density of 5000 cells per well in 100 μl DMEM containing 5% FBS. The following day, compounds were diluted in dimethyl sulfoxide (DMSO) to generate a 200× stock in a series of eight half-log dilutions. The dilution series was then further diluted 100-fold in the medium containing 5% FBS. […] Luciferin solution (50 μl, Promega) was added to each well, and luciferase activity was measured with a Victor II luminometer (Perkin-Elmer). The percent inhibition of HCV RNA replication was calculated for each compound concentration and the EC50 value was calculated using nonlinear regression curve fitting to the 4-parameter logistic equation and GraphPad Prism 4 software (Halfman, METHODS ENZYMOL 74 Pt C: 481-497 (1981)). […]

[4] = system: HCV replicon containing NS5A from genotype 2b; experiment: Stable 1b-Con1 replicon cell line containing a portion of NS5A from genotype 2b (luciferase); conditions: Hepatitis C virus
Method: as §1, §2

[5] = system: HCV replicon containing NS5A from genotype 3a; experiment: Stable 1b-Con1 replicon cell line containing a portion of NS5A from genotype 3a (luciferase); conditions: Hepatitis C virus
Method: as §1, §2

[6] = system: HCV replicon containing NS5A from genotype 4a; experiment: Stable 1b-Con1 replicon cell line containing a portion of NS5A from genotype 4a (luciferase); conditions: Hepatitis C virus
Method: as §1, §2

[7] = system: HCV replicon containing NS5A from genotype 5a; experiment: Stable 1b-Con1 replicon cell line containing a portion of NS5A from genotype 5a (luciferase); conditions: Hepatitis C virus
Method: as §1, §2

[8] = system: HCV replicon containing NS5A from genotype 6a; experiment: Stable 1b-Con1 replicon cell line containing a portion of NS5A from genotype 6a (luciferase); conditions: Hepatitis C virus
Method: as §1, §2

[9] = system: HCV replicons containing NS5A genes from genotype 1b HCV infected humans; experiment: Transient replicon (shuttle vector) assay with NS5A genes from patient isolates, genotype 1b
[10] = system: HCV replicons containing NS5A genes from genotype 2a HCV infected humans; experiment: Transient replicon (shuttle vector) assay with NS5A genes from patient isolates, genotype 2a; conditions: Hepatitis C virus
[11] = system: HCV replicons containing NS5A genes from genotype 2b HCV infected humans; experiment: Transient replicon (shuttle vector) assay with NS5A genes from patient isolates, genotype 2b
[12] = system: HCV replicons containing NS5A genes from genotype 3a HCV infected humans; experiment: Transient replicon (shuttle vector) assay with NS5A genes from patient isolates, genotype 3a
[13] = system: HCV replicons containing NS5A genes from genotype 6a HCV infected humans; experiment: Transient replicon (shuttle vector) assay with NS5A genes from patient isolates, genotype 6a
[14] = read-out: Mean EC50, pM, ± Std. Dev.

Molecule COC(=O)N[C@H](C(=O)N1CCC[C@H]1C(=O)Nc1ccc([C@@H]2CC[C@@H](c3ccc(NC(=O)[C@@H]4CCCN4C(=O)[C@@H](NC(=O)OC)C(C)C)cc3)N2c2ccc(C(C)(C)C)cc2)cc1)C(C)C [Compound 1, dimethyl (2S,2′S)-1,1′-((2S,2′S)-2,2′-(4,4′-((2S,5 S)-1-(4-tert-butylphenyl)pyrrolidine-2,5-diyl)bis(4,1-phenylene))bis(azanediyl)bis(oxomethylene)bis(pyrrolidine-2,1-diyl))bis(3-methyl-1-oxobutane-2,1-diyl)dicarbamate] has an EC50 ([1]; Genotype 1a-H77 replicon, 0% human plasma (5% fetal bovine serum), read-out: Mean EC50, pM, ± Std. Dev.) of 14.1 ± 6.8 pM, an EC50 ([1]; against HCV genotype 1a (summary statement), read-out: EC50 value) of less than 20 pM and an EC50 ([1]; genotype 1a and 1b replicons together, in the presence of 5% FBS, read-out: mean EC50 values) of 5 to 14 pM. The EC50 ([2]; Genotype 1b-Con1 replicon, 0% human plasma (5% fetal bovine serum), read-out: Mean EC50, pM, ± Std. Dev.) was 5 ± 1.9 pM, the EC50 ([2]; against HCV genotype 1b (summary statement), read-out: EC50 value) was less than 20 pM and the EC50 ([3]; read-out: EC50 value) was less than 20 pM. For the same molecule, the EC50 [3, 14] was 12.4 ± 2.7 pM, the EC50 ([4]; read-out: EC50 value) was less than 20 pM and the EC50 [4, 14] was 4.3 ± 1.2 pM. The EC50 ([5]; read-out: EC50 value) was less than 20 pM, the EC50 [5, 14] was 19.3 ± 5.8 pM and the EC50 ([6]; read-out: EC50 value) was less than 20 pM. For the same molecule, the EC50 [6, 14] was 1.71 ± 0.88 pM, the EC50 ([7]; read-out: EC50 value) was less than 20 pM and the EC50 [7, 14] was 4.3 ± 0.9 pM. It also gave an EC50 ([8]; read-out: EC50 value) of less than 500 pM, an EC50 [8, 14] of 415 ± 97 pM and an EC50 ([9]; Hepatitis C virus, Genotype 1b, isolate 1393) of 1.15 pM. The EC50 ([9]; Hepatitis C virus, Genotype 1b, isolate 4377) was 1.53 pM, the EC50 ([9]; Hepatitis C virus, Genotype 1b, isolate 4386) was 1.21 pM and the EC50 ([9]; Hepatitis C virus, Genotype 1b, isolate 4410) was 1.2 pM. It also gave an EC50 ([9]; Hepatitis C virus, Genotype 1b, isolate 9432) of 1.12 pM, an EC50 ([9]; Hepatitis C virus, read-out: EC50, pM, Mean ± Std. Dev, mean of the 11 genotype 1b clinical isolates) of 1 pM and an EC50 ([9]; read-out: EC50, pM, Mean ± Std. Dev, mean of the 11 genotype 1b clinical isolates) of 1.03 ± 0.23 pM. It also gave an EC50 ([10]; Genotype 2a, isolate 34021) of 5.07 pM, an EC50 ([10]; Genotype 2a, isolate 84836) of 11.3 pM and an EC50 ([10]; Genotype 2a, isolate 88935) of 2.56 pM. The EC50 ([10]; Genotype 2a, isolate 88939) was 2.03 pM, the EC50 ([10]; Genotype 2a, isolate 91106) was 3.39 pM and the EC50 ([10]; Genotype 2a, isolate 10124423) was 3.46 pM. The EC50 ([10]; Genotype 2a, isolate U01) was 4.79 pM, the EC50 ([10]; read-out: EC50, pM, Mean ± Std. Dev., mean of the genotype 2a isolates (methionine at NS5A position 31)) was 3.8 pM and the EC50 ([11]; Hepatitis C virus, Genotype 2b, isolate 48477) was 1.11 pM. For the same molecule, the EC50 ([11]; Hepatitis C virus, Genotype 2b, isolate 51629, variant F28) was 44.7 pM, the EC50 ([11]; Hepatitis C virus, Genotype 2b, isolate 9992612) was 5.15 pM and the loss in activity ([11]; genotype 2b sample containing L28F variant) was 75 fold. It also gave an EC50 ([11]; read-out: EC50, pM, Mean ± Std. Dev., mean of 13/14 genotype 2b samples (without the L28F sample)) of 1.08 ± 1.23 pM, an EC50 ([12]; Genotype 3a, isolate 55500, variant K30 (A30K)) of 55.2 pM and an EC50 ([12]; Hepatitis C virus, Genotype 3a, isolate 7153-55) of 2.32 pM. It also gave an EC50 ([12]; Hepatitis C virus, Genotype 3a, isolate 9110-47) of 3.87 pM, an EC50 ([12]; Hepatitis C virus, Genotype 3a, isolate 48557) of 11.4 pM and an EC50 ([12]; Hepatitis C virus, Genotype 3a, isolate 55500, variant K30 (A30K)) of 55 pM. For the same molecule, the EC50 ([12]; Hepatitis C virus, Genotype 3a, isolate 55510) was 3.03 pM, the EC50 ([12]; Hepatitis C virus, Genotype 3a, isolate 55534) was 3.28 pM and the EC50 ([12]; Hepatitis C virus, Genotype 3a, isolate 57223) was 4.14 pM. The EC50 ([12]; Hepatitis C virus, Genotype 3a, isolate 57314) was 2.02 pM, the EC50 ([12]; Hepatitis C virus, Genotype 3a, isolate 85501) was 3.05 pM and the EC50 ([12]; Hepatitis C virus, Genotype 3a, isolate 89241, variant V28) was 2.71 pM. The EC50 ([12]; Hepatitis C virus, Genotype 3a, isolate 95079) was 15.2 pM, the EC50 ([12]; Hepatitis C virus, Genotype 3a, isolate 9810069) was 2.52 pM and the EC50 ([12]; Hepatitis C virus, read-out: EC50, pM, Mean ± Std. Dev., mean of 12 of the 13 genotype 3a samples (without the A30K sample)) was 4.5 pM. The EC50 ([12]; read-out: EC50, pM, Mean ± Std. Dev., mean of 12 of the 13 genotype 3a samples (without the A30K sample)) was 4.54 ± 4.26 pM, the EC50 ([13]; Hepatitis C virus, isolate 1110880, variant L28) was 42 pM and the EC50 ([13]; Hepatitis C virus, isolate 1110880-L28F, variant F28 (L28F mutation introduced)) was 68 pM. For the same molecule, the EC50 ([13]; isolate 1110880, variant L28) was 42.3 pM and the EC50 ([13]; isolate 1110880-L28F, variant F28 (L28F mutation introduced)) was 68 pM.
